Results reported in US6348486B1, “Methods for modulating bladder function” (American Home Products Corporation, priority 2000, dated 2002).

Experiments:
[1] = test system: isolated carbachol contracted rat bladder strips; test: Relaxation of isolated carbachol contracted rat bladder strips
Experimental: (§1) Using quantitative rtPCR, the expression of KCNQ1, KCNQ3 and KCNQ5 potassium channels was identified in the rat urinary bladder. […] To further probe M-current activity in the bladder, retigabine (10 μM, M-current agonist) was tested in isolated bladder smooth muscle cells using standard patch-clamp techniques. […] This hyperpolarization was reversed by the addition of linopirdine (50 μM an M-current antagonist) to the tissue bath. […] This relaxation was reversed by the M-current blockers linopirdine and XE-991.

[2] = test system: isolated bladder smooth muscle cells; test: Patch-clamp of isolated bladder smooth muscle cells (M-current activity); type: cell-based, rat
Experimental: as §1

[3] = target: T1, KCNQ2/3 potassium channels (Homo sapiens, UniProt O43525+O43526); settings: oocytes; cited from earlier work
T1 construct: host or cells: oocytes (heterologous expression, as described in the cited article)
T1 sequence (O43526 whole entry): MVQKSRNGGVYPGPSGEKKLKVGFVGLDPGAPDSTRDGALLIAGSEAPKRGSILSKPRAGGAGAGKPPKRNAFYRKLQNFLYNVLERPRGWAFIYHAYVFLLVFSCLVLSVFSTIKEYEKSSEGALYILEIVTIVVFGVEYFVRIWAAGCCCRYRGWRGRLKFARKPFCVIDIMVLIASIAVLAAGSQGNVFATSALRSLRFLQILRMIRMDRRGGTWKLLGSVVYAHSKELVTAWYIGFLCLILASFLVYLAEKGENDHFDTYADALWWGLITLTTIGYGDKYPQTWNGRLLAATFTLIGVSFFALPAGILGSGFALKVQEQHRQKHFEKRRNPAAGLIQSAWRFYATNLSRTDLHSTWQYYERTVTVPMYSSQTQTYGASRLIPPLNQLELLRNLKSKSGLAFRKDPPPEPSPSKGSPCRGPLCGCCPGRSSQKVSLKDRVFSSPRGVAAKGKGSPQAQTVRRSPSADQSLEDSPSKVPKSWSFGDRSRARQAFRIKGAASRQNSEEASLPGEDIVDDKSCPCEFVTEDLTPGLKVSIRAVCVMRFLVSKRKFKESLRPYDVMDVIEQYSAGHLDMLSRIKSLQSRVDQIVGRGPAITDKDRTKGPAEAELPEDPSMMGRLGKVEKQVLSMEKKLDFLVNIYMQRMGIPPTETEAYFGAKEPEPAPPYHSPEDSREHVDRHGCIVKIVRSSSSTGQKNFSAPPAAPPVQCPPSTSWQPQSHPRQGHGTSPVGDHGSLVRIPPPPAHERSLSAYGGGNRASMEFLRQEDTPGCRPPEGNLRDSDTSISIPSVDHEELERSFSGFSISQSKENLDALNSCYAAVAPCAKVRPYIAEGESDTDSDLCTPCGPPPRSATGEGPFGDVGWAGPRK
T1 sequence (O43525 whole entry): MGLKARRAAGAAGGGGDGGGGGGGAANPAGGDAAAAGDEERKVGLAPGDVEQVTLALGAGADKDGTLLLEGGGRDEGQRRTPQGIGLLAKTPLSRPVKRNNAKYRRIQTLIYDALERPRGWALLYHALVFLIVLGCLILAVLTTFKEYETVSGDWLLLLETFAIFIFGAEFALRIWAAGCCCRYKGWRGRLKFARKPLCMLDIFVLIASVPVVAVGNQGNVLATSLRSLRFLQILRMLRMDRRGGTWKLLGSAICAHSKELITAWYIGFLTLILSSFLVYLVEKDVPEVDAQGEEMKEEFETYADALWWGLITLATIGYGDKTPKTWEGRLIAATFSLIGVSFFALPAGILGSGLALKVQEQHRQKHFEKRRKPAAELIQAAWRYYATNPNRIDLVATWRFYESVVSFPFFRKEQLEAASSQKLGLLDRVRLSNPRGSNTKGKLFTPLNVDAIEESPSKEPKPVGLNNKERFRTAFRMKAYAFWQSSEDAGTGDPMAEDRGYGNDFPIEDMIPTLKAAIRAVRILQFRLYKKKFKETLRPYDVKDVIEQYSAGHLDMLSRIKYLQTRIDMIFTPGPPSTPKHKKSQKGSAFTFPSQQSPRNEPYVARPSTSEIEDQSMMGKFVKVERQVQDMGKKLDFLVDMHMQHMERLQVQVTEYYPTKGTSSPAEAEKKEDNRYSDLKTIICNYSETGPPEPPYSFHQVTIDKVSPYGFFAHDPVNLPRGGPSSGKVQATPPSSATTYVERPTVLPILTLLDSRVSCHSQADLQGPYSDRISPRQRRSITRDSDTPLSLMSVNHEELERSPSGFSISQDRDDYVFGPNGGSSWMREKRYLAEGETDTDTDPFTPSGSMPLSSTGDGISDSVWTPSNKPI

Row | Structure (SMILES) | reversal of retigabine-induced relaxation by M-current blockers [1] | reversal of retigabine-induced hyperpolarization ([2]; linopirdine 50 μM added to the tissue bath) | membrane hyperpolarization ([2]; retigabine 10 μM, n=5) | outward current insensitive to iberiotoxin ([2]; retigabine 10 μM, standard patch-clamp) | IC50 ([1]; Rattus norvegicus, read-out: IC50 for relaxation of carbachol contracted bladder strips) | channel deactivation [3] | rate of channel activation [3] | voltage dependence of channel activation [3]
1 | O=C1c2ccccc2C(Cc2ccncc2)(Cc2ccncc2)c2ccccc21 [XE-991] | reversed |  |  |  |  |  |  | 
2 | O=C1N(c2ccccc2)c2ccccc2C1(Cc1ccncc1)Cc1ccncc1 [linopirdine] | reversed | reversed |  |  |  |  |  | 
3 | CCOC(=O)Nc1ccc(NCc2ccc(F)cc2)cc1N [retigabine, N-[2-amino-4-(4-fluorobenzylamino)-phenyl]carbamic acid ethyl ester] |  |  | 17.8±3.0 mV | significantly increased | 3.5 ± 0.9 µM | slows channel deactivation | increases the rate of channel activation | shifts the voltage dependence of channel activation to more hyperpolarized membrane potentials
